The record followed here is patent publication US9328122B2, “7-substituted Hanfangichin B derivative, and preparation method and use thereof” (HANGZHOU BENSHENG PHARMACEUTICAL CO., LTD., priority 2012, dated 2016).

≈ marks a conversion by molar mass, not a printed value.

As a reminder, the IC50 is the midpoint of a concentration-inhibition curve. A word on the IC90: it is the point of the concentration-response curve where the effect stands at 90%.

The first series deals with Hep G2 transplanted tumor. In words: Transplanted tumor of liver cancer in nude mice. To be noted: Hep G2 transplanted tumor, Day 28; intragastric 3 times a day for 10 days; BS-FC-308 35 mg/kg/time, erlotinib hydrochloride 20 mg/kg/time.
Protocol: Liver cancer cell lines: Hep G2 (human liver cancer cell line);
Animal: BALBc nude mice (immunodeficient mice), 8 weeks, female, purchased from Shanghai Laboratory Animal Center of Chinese Academy of Sciences, China.
Under sterile conditions, the Hep G2 cells in the logarithmic growth phase were respectively collected and injected subcutaneously in an amount of 2.3×10^7/0.2 mL/nude mice (cell viability >90%) into the left subaxillary of the nude mice, thus establishing a transplanted tumor model of liver cancer in nude mice. The mice were administered from the second day after inoculation. The experimental group was intragastrically administered with the experimentally designed amount, the negative control group was intragastrically administered with sterile water, and the positive control group was intragastrically administered with erlotinib hydrochloride. Each mouse was intragastrically administered in 0.4 ml each time and 3 times a day, at 8:00, 14:00 and 20:00, with 6-hour intervals. The administrations were successive for 10 days. The day before administration was deemed as Day 0 and the weight and tumor size of the mice were determined every 5 days to produce a dynamic plot on weight and tumor growth (the experimental results are presented as mean±SD). On Day 28, the mice were sacrificed and the tumors were taken out and weighed. The tumor inhibition rate (%) after the effect of the medicament was calculated based on a tumor inhibition rate of the control group being zero.
The experimental data for each group were analyzed by using the One-way ANOVA method in the SPSS 19.0 statistical software and were compared with the control group for significance of difference.
On to `COc1ccc2cc1Oc1ccc(cc1)C[C@H]1c3cc(c(OC)cc3CCN1C)Oc1c(OC(=O)c3ccc(N(C)C)cc3)c(OC)cc3c1[C@H](C2)N(C)CC3` [BS-FC-308], for which the Mass of tumor is reported as 566 ± 112.26 mg.

Still in this series, the particulars now being: Hep G2 transplanted tumor, Day 28; intragastric 3 times a day for 10 days; BS-FC-308 35 mg/kg/time, erlotinib hydrochloride 20 mg/kg/time; control = 0.
With `COc1ccc2cc1Oc1ccc(cc1)C[C@H]1c3cc(c(OC)cc3CCN1C)Oc1c(OC(=O)c3ccc(N(C)C)cc3)c(OC)cc3c1[C@H](C2)N(C)CC3` [BS-FC-308], the “Tumor Inhibition rate” value was 55.82%.

The same series, now with this note: Hep G2 tumor nude mice, before administration; intragastric 3 times a day; BS-FC-308 35 mg/kg/time, erlotinib hydrochloride 20 mg/kg/time; mean±SD.
Regarding `COc1ccc2cc1Oc1ccc(cc1)C[C@H]1c3cc(c(OC)cc3CCN1C)Oc1c(OC(=O)c3ccc(N(C)C)cc3)c(OC)cc3c1[C@H](C2)N(C)CC3` [BS-FC-308], the “Body Weight (g) Initial” value amounted to 21.8 ± 0.62 g.

The series is the same for the next values; noted with them: Hep G2 tumor nude mice, final; intragastric 3 times a day for 10 days; BS-FC-308 35 mg/kg/time, erlotinib hydrochloride 20 mg/kg/time; mean±SD.
`COc1ccc2cc1Oc1ccc(cc1)C[C@H]1c3cc(c(OC)cc3CCN1C)Oc1c(OC(=O)c3ccc(N(C)C)cc3)c(OC)cc3c1[C@H](C2)N(C)CC3` [BS-FC-308]: the “Body Weight (g) Final” value is listed as 19.0 ± 0.49 g.

The same series, now with this note: nude mice.
As for `COc1ccc2cc1Oc1ccc(cc1)C[C@H]1c3cc(c(OC)cc3CCN1C)Oc1c(OC(=O)c3ccc(N(C)C)cc3)c(OC)cc3c1[C@H](C2)N(C)CC3` [BS-FC-308], the “weight of the Hep G2 transplanted tumors (FIG. 3)” value was “significantly reduces”.

The subject of another series is KCL-22M transplanted tumor. In words: Transplanted tumor of leukemia in nude mice. The class given is in vivo, BALBc nude mice. Conditions: 30 mg/kg/time, three administrations per day; weight rebounded after administration was stopped. The method, then: Leukemia cell lines: KCL-22M (human chronic myeloid leukemia mutant strain);
The mice were administered from the second day after the inoculation. […] The administrations were successive for 10 days. […] On Day 25, the mice were sacrificed and the tumors are taken out and weighed.
As for `COc1ccc2cc1Oc1ccc(cc1)C[C@H]1c3cc(c(OC)cc3CCN1C)Oc1c(OC(=O)c3ccc(N(C)C)cc3)c(OC)cc3c1[C@H](C2)N(C)CC3` [BS-FC-308], the “animal's weight during the administration (toxic and side effects)” value is “weight was reduced”.

The series is the same for the next values; noted with them: KCL-22M transplanted tumor, Day 25; 30 mg/kg/time intragastric 3 times a day for 10 days.
Molecule `COc1ccc2cc1Oc1ccc(cc1)C[C@H]1c3cc(c(OC)cc3CCN1C)Oc1c(OC(=O)c3ccc(N(C)C)cc3)c(OC)cc3c1[C@H](C2)N(C)CC3` [BS-FC-308] returned a Mass of tumor of 521 ± 249 mg.

The series is the same for the next values; noted with them: KCL-22M transplanted tumor, Day 25; 30 mg/kg/time intragastric 3 times a day for 10 days; control = 0.
In the case of `COc1ccc2cc1Oc1ccc(cc1)C[C@H]1c3cc(c(OC)cc3CCN1C)Oc1c(OC(=O)c3ccc(N(C)C)cc3)c(OC)cc3c1[C@H](C2)N(C)CC3` [BS-FC-308], the “Tumor Inhibition rate” value was 74.45%.

Still in this series, the particulars now being: KCL-22M tumor nude mice, before administration; 30 mg/kg/time intragastric 3 times a day; mean±SD.
For `COc1ccc2cc1Oc1ccc(cc1)C[C@H]1c3cc(c(OC)cc3CCN1C)Oc1c(OC(=O)c3ccc(N(C)C)cc3)c(OC)cc3c1[C@H](C2)N(C)CC3` [BS-FC-308], the “Body Weight (g) Initial” value turned out to be 19.5 ± 0.2 g.

Staying with this series, now noted: KCL-22M tumor nude mice, final; 30 mg/kg/time intragastric 3 times a day for 10 days; mean±SD.
As to `COc1ccc2cc1Oc1ccc(cc1)C[C@H]1c3cc(c(OC)cc3CCN1C)Oc1c(OC(=O)c3ccc(N(C)C)cc3)c(OC)cc3c1[C@H](C2)N(C)CC3` [BS-FC-308], the “Body Weight (g) Final” value is given as 15.4 ± 1.51 g.

In a further series the test system is MGC-803 (human gastric cancer) cells. Description: MTT cell growth inhibition, solid tumor cells. The class given is cell-based. Conditions: MGC-803, 72 h, MTT, read-out: IC50. An outline of the steps:
(§1)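 MTT was used to measure cell survival. Wells held 6000 cells in 10% FBS high-glucose DMEM, pre-incubated 24 h, then dosed with compound at various concentrations for 72 h (37 °C, 5% CO2).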
As to `COc1ccc2cc1Oc1ccc(cc1)C[C@H]1c3cc(c(OC)cc3CCN1C)Oc1c(OS(=O)(=O)c3ccc(C)cc3)c(OC)cc3c1[C@H](C2)N(C)CC3` [BS-FC-102], the IC50 is 1.71 µg/mL (≈ 2.24 µM).
With `COc1ccc2cc1Oc1ccc(cc1)C[C@H]1c3cc(c(OC)cc3CCN1C)Oc1c(OS(=O)(=O)c3ccccc3)c(OC)cc3c1[C@H](C2)N(C)CC3` [BS-FC-104], the IC50 was determined as 1.36 µg/mL (≈ 1.82 µM).
Same read-out and setting: in the case of `COc1ccc2cc1Oc1ccc(cc1)C[C@H]1c3cc(c(OC)cc3CCN1C)Oc1c(OCc3cccc(F)c3F)c(OC)cc3c1[C@H](C2)N(C)CC3` [BS-FC-204] it was 2.94 µg/mL (≈ 4 µM); in that of `COc1ccc2cc1Oc1ccc(cc1)C[C@H]1c3cc(c(OC)cc3CCN1C)Oc1c(OC(=O)c3ccc(N(C)C)cc3)c(OC)cc3c1[C@H](C2)N(C)CC3` [BS-FC-308], 0.57 µg/mL (≈ 0.754 µM).

Still in this series, the particulars now being: MGC-803, 72 h, MTT, read-out: IC90.
As for `COc1ccc2cc1Oc1ccc(cc1)C[C@H]1c3cc(c(OC)cc3CCN1C)Oc1c(OS(=O)(=O)c3ccc(C)cc3)c(OC)cc3c1[C@H](C2)N(C)CC3` [BS-FC-102], the IC90 came to 4.95 µg/mL (≈ 6.49 µM).
Take `COc1ccc2cc1Oc1ccc(cc1)C[C@H]1c3cc(c(OC)cc3CCN1C)Oc1c(OS(=O)(=O)c3ccccc3)c(OC)cc3c1[C@H](C2)N(C)CC3` [BS-FC-104]: the IC90 came to 4.28 µg/mL (≈ 5.72 µM).
In the case of `COc1ccc2cc1Oc1ccc(cc1)C[C@H]1c3cc(c(OC)cc3CCN1C)Oc1c(OCc3cccc(F)c3F)c(OC)cc3c1[C@H](C2)N(C)CC3` [BS-FC-204], the IC90 is 8.5 µg/mL (≈ 11.6 µM).
Turning to `COc1ccc2cc1Oc1ccc(cc1)C[C@H]1c3cc(c(OC)cc3CCN1C)Oc1c(OC(=O)c3ccc(N(C)C)cc3)c(OC)cc3c1[C@H](C2)N(C)CC3` [BS-FC-308], the IC90 is 1.99 µg/mL (≈ 2.63 µM).

For the next series, the system named is A549 (human lung cancer) cells. Description: MTT cell growth inhibition, solid tumor cells. It is filed as cell-based. To be noted: Homo sapiens; A549, 72 h, MTT; read-out: IC50. The method, boiled down:
as §1
On to `COc1ccc2cc1Oc1ccc(cc1)C[C@H]1c3cc(c(OC)cc3CCN1C)Oc1c(OS(=O)(=O)c3ccc(C)cc3)c(OC)cc3c1[C@H](C2)N(C)CC3` [BS-FC-102], for which the IC50 worked out at 2.41 µg/mL (≈ 3.16 µM).
Take `COc1ccc2cc1Oc1ccc(cc1)C[C@H]1c3cc(c(OC)cc3CCN1C)Oc1c(OS(=O)(=O)c3ccccc3)c(OC)cc3c1[C@H](C2)N(C)CC3` [BS-FC-104]: the IC50 was found to be 1.57 µg/mL (≈ 2.1 µM).
The same measure, in the same setting: in the case of `COc1ccc2cc1Oc1ccc(cc1)C[C@H]1c3cc(c(OC)cc3CCN1C)Oc1c(OCc3cccc(F)c3F)c(OC)cc3c1[C@H](C2)N(C)CC3` [BS-FC-204] it was 2.16 µg/mL (≈ 2.94 µM).
Consider `COc1ccc2cc1Oc1ccc(cc1)C[C@H]1c3cc(c(OC)cc3CCN1C)Oc1c(OC(=O)c3ccc(N(C)C)cc3)c(OC)cc3c1[C@H](C2)N(C)CC3` [BS-FC-308], for which the IC50 worked out at 0.99 µg/mL (≈ 1.31 µM).

Staying with this series, now noted: Homo sapiens; A549, 72 h, MTT; read-out: IC90.
Turning to `COc1ccc2cc1Oc1ccc(cc1)C[C@H]1c3cc(c(OC)cc3CCN1C)Oc1c(OS(=O)(=O)c3ccc(C)cc3)c(OC)cc3c1[C@H](C2)N(C)CC3` [BS-FC-102], the IC90 was 6.55 µg/mL (≈ 8.59 µM).
Consider `COc1ccc2cc1Oc1ccc(cc1)C[C@H]1c3cc(c(OC)cc3CCN1C)Oc1c(OS(=O)(=O)c3ccccc3)c(OC)cc3c1[C@H](C2)N(C)CC3` [BS-FC-104], for which the IC90 was 3.94 µg/mL (≈ 5.26 µM).
Turning to `COc1ccc2cc1Oc1ccc(cc1)C[C@H]1c3cc(c(OC)cc3CCN1C)Oc1c(OCc3cccc(F)c3F)c(OC)cc3c1[C@H](C2)N(C)CC3` [BS-FC-204], the concentration for an effect of 90% (IC90) is 3.94 µg/mL (≈ 5.36 µM).
Regarding `COc1ccc2cc1Oc1ccc(cc1)C[C@H]1c3cc(c(OC)cc3CCN1C)Oc1c(OC(=O)c3ccc(N(C)C)cc3)c(OC)cc3c1[C@H](C2)N(C)CC3` [BS-FC-308], the 90% effect concentration (IC90) worked out at 3.16 µg/mL (≈ 4.18 µM).

The same series, now with this note: relative to fangchinoline, Table 2.
In the case of `COc1ccc2cc1Oc1ccc(cc1)C[C@H]1c3cc(c(OC)cc3CCN1C)Oc1c(OC(=O)c3ccc(N(C)C)cc3)c(OC)cc3c1[C@H](C2)N(C)CC3` [BS-FC-308], the “anti-A549 activity increase over fangchinoline” value is given as “more than 3 fold”.

A further series deals with Hep-2 (laryngeal carcinoma) cells. Description: MTT cell growth inhibition, solid tumor cells. It is filed as cell-based. To be noted: Homo sapiens; Hep-2, 72 h, MTT; read-out: IC50. The method, boiled down:
as §1
For the molecule `COc1ccc2cc1Oc1ccc(cc1)C[C@H]1c3cc(c(OC)cc3CCN1C)Oc1c(OS(=O)(=O)c3ccc(C)cc3)c(OC)cc3c1[C@H](C2)N(C)CC3` [BS-FC-102], the IC50 amounted to 3.99 µg/mL (≈ 5.23 µM).
On the same count and under the same terms, under `COc1ccc2cc1Oc1ccc(cc1)C[C@H]1c3cc(c(OC)cc3CCN1C)Oc1c(OS(=O)(=O)c3ccccc3)c(OC)cc3c1[C@H](C2)N(C)CC3` [BS-FC-104] stands 3.18 µg/mL (≈ 4.25 µM); under `COc1ccc2cc1Oc1ccc(cc1)C[C@H]1c3cc(c(OC)cc3CCN1C)Oc1c(OCc3cccc(F)c3F)c(OC)cc3c1[C@H](C2)N(C)CC3` [BS-FC-204], 3.18 µg/mL (≈ 4.33 µM); under `COc1ccc2cc1Oc1ccc(cc1)C[C@H]1c3cc(c(OC)cc3CCN1C)Oc1c(OC(=O)c3ccc(N(C)C)cc3)c(OC)cc3c1[C@H](C2)N(C)CC3` [BS-FC-308], 3.08 µg/mL (≈ 4.07 µM).

The series is the same for the next values; noted with them: Homo sapiens; Hep-2, 72 h, MTT; read-out: IC90.
Turning to `COc1ccc2cc1Oc1ccc(cc1)C[C@H]1c3cc(c(OC)cc3CCN1C)Oc1c(OS(=O)(=O)c3ccc(C)cc3)c(OC)cc3c1[C@H](C2)N(C)CC3` [BS-FC-102], the IC90 turned out to be 11.1 µg/mL (≈ 14.5 µM).
Still for that read-out and setting: in the case of `COc1ccc2cc1Oc1ccc(cc1)C[C@H]1c3cc(c(OC)cc3CCN1C)Oc1c(OS(=O)(=O)c3ccccc3)c(OC)cc3c1[C@H](C2)N(C)CC3` [BS-FC-104] it was 10.2 µg/mL (≈ 13.6 µM); in that of `COc1ccc2cc1Oc1ccc(cc1)C[C@H]1c3cc(c(OC)cc3CCN1C)Oc1c(OCc3cccc(F)c3F)c(OC)cc3c1[C@H](C2)N(C)CC3` [BS-FC-204], 8.31 µg/mL (≈ 11.3 µM).
Regarding `COc1ccc2cc1Oc1ccc(cc1)C[C@H]1c3cc(c(OC)cc3CCN1C)Oc1c(OC(=O)c3ccc(N(C)C)cc3)c(OC)cc3c1[C@H](C2)N(C)CC3` [BS-FC-308], the IC90 was found to be 6.05 µg/mL (≈ 8 µM).
